Calls of active or inactive are those of the source. No cut-off for these calls is given here. Numbered stars: 1 amine (or outer) side, 2 acyl side, 3 side chain; on linkers, the order of the positions; unused ones are H or OH. Square brackets hold non-standard residues; d marks the D form. Peptide text beside a SMILES is read from it. X1 = CC(=O)N[C@H]1[C@@H](O[C@@H](C)CN(CC(=O)[*:2])[*:1])O[C@H](CO)[C@H](O)[C@@H]1O; X2 = CC(=O)N[C@H]1[C@@H](O[C@H](C)CN(CC(=O)[*:2])[*:1])O[C@H](CO)[C@H](O)[C@@H]1O; X3 = CC(=O)N[C@H]1[C@@H](OCCN(CC(=O)[*:2])[*:1])O[C@H](CO)[C@H](O)[C@@H]1O
Legend:
Escherichia coli [1] = test: Antibacterial activity against clinical isolate Escherichia coli KCTC 1682 at 50 uM after overnight incubation by radial diffusion assay relative to drosocin D; assay type: functional
Escherichia coli [2] = test: Antibacterial activity against clinical isolate Escherichia coli KCTC 1682 after overnight incubation by radial diffusion assay; assay type: functional, organism-based

| SMILES | fold change (FC) (Escherichia coli [1]) | Activity (Escherichia coli [2]) |
| --- | --- | --- |
| CC[C@H](C)[C@H](NC(=O)[C@@H]1CCCN1C(=O)[C@H](CCCNC(=N)N)NC(=O)[C@@H]1CCCN1C(=O)[C@H](Cc1cnc[nH]1)NC(=O)[C@H](CO)NC(=O)CN(C[C@H](C)O[C@H]1O[C@H](CO)[C@H](O)[C@H](O)[C@H]1NC(C)=O)C(=O)[C@H](C)NC(=O)[C@H](CCCNC(=N)N)NC(=O)[C@@H]1CCCN1C(=O)[C@@H](NC(=O)[C@H](Cc1ccc(O)cc1)NC(=O)[C@@H]1CCCN1C(=O)[C@H](CCCNC(=N)N)NC(=O)[C@@H]1CCCN1C(=O)[C@H](CCCCN)NC(=O)CN)[C@@H](C)O)C(=O)N[C@@H](CCCNC(=N)N)C(=O)N[C@H](C(=O)O)C(C)C (H-GKPRPYTPRA[X1]SHPRPIRV-OH) | 6 | Dose-dependent effect |
| CC[C@H](C)[C@H](NC(=O)[C@@H]1CCCN1C(=O)[C@H](CCCNC(=N)N)NC(=O)[C@@H]1CCCN1C(=O)[C@H](Cc1cnc[nH]1)NC(=O)[C@H](CO)NC(=O)CN(C[C@@H](C)O[C@H]1O[C@H](CO)[C@H](O)[C@H](O)[C@H]1NC(C)=O)C(=O)[C@H](C)NC(=O)[C@H](CCCNC(=N)N)NC(=O)[C@@H]1CCCN1C(=O)[C@@H](NC(=O)[C@H](Cc1ccc(O)cc1)NC(=O)[C@@H]1CCCN1C(=O)[C@H](CCCNC(=N)N)NC(=O)[C@@H]1CCCN1C(=O)[C@H](CCCCN)NC(=O)CN)[C@@H](C)O)C(=O)N[C@@H](CCCNC(=N)N)C(=O)N[C@H](C(=O)O)C(C)C (H-GKPRPYTPRA[X2]SHPRPIRV-OH) |  | Active |
| CC[C@H](C)[C@H](NC(=O)[C@@H]1CCCN1C(=O)[C@H](CCCNC(=N)N)NC(=O)[C@@H]1CCCN1C(=O)[C@H](Cc1cnc[nH]1)NC(=O)[C@H](CO)NC(=O)CN(CCO[C@H]1O[C@H](CO)[C@H](O)[C@H](O)[C@H]1NC(C)=O)C(=O)[C@H](C)NC(=O)[C@H](CCCNC(=N)N)NC(=O)[C@@H]1CCCN1C(=O)[C@@H](NC(=O)[C@H](Cc1ccc(O)cc1)NC(=O)[C@@H]1CCCN1C(=O)[C@H](CCCNC(=N)N)NC(=O)[C@@H]1CCCN1C(=O)[C@H](CCCCN)NC(=O)CN)[C@@H](C)O)C(=O)N[C@@H](CCCNC(=N)N)C(=O)N[C@H](C(=O)O)C(C)C (H-GKPRPYTPRA[X3]SHPRPIRV-OH) |  | Active |
